In US6093838A, “Amines substituted with a dihydro-benzofuranyl or with a dihydro-isobenzofuranyl group, an aryl or heteroaryl group and an alkyl group, having retinoid-like biological activity” (Allergan Sales, Inc., priority 1999, dated 2000):
Like-named read-outs stand apart in the source and are kept apart here.

How the values were obtained:
RXRγ = assay: ligand binding assay, RXRγ; settings: read-out: RXR Bind Ki γ
Text: (§1) Other assays described below, measure the ability of the compounds of the present invention to bind to, and/or activate various retinoid receptor subtypes. When in these assays a compound binds to a given receptor subtype and activates the transcription of a reporter gene through that subtype, then the compound is considered an agonist of that receptor subtype. […] In the below described assays the ability of the compounds to bind to RARα, RARβ, RARγ, RXRα, RXRβ and RXRγ receptors, and the ability or inability of the compounds to activate transcription of a reporter gene through these receptor subtypes can be tested. […] However, some of the compounds of the invention may behave as retinoid antagonists or partial antagonists and/or as inverse agonists. Because of the complex distribution of the different retinoid receptors in various organs of the mammalian body partial agonists and partial antagonists and compounds which have the characteristics of both may lend themselves to particularly useful therapeutic applications and may avoid serious side effects of conventional retinoid drugs.
(§2) A holoreceptor transactivation assay and a ligand binding assay which measure the antagonist/agonist like activity of the compounds of the invention, or their ability to bind to the several retinoid receptor subtypes, respectively, are described in published PCT Application No. WO WO93/11755 (particularly on pages 30-33 and 37-41) published on Jun. 24, 1993, the specification of which is also incorporated herein by reference. A detailed experimental procedure for holoreceptor transactivations has been described by Heyman et al. Cell 68, 397-406, (1992); Allegretto et al. J. Biol. Chem. 268, 26625-26633, and Mangelsdorf et al. The Retinoids: Biology, Chemistry and Medicine, pp 319-349, Raven Press Ltd., New York, which are expressly incorporated herein by reference. The results obtained in this assay are expressed in EC50 numbers, as they are also in the chimeric receptor transactivation assay. The results of ligand binding assay are expressed in Kd numbers. (See Cheng et al. Biochemical Pharmacology Vol. 22 pp 3099-3108, expressly incorporated herein by reference.)
(§3) Table 1 discloses the activity of certain exemplary compounds of the invention in the above-described chimeric receptor transactivation assay, holoreceptor transactivation assay and a ligand binding assays. Particularly, the transactivation data pertaining to RAR receptors were obtained in the chimeric assay, and the data pertaining to transactivation of RXR receptors were obtained in the holoreceptor transactivation assay.

RARα = target: T1, RARα (Homo sapiens, UniProt P10276); assay: ligand binding assay, RARα
T1 sequence (P10276 1-462): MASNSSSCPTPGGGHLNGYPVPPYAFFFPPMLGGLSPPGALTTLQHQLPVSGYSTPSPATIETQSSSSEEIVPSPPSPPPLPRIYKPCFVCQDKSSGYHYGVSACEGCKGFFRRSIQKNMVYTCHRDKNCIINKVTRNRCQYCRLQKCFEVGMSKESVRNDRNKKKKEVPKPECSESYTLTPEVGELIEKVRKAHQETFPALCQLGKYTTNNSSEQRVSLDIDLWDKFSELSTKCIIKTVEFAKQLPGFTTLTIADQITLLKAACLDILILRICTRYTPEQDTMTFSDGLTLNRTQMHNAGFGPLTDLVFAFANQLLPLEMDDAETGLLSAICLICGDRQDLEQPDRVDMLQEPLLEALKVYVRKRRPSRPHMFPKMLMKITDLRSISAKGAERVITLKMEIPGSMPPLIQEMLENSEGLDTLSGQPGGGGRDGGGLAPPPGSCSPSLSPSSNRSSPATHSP
Text: as §1, §2, §3

RXRα [1] = target: T2, RXRα (Homo sapiens, UniProt P19793); assay: holoreceptor transactivation assay, RXRα; type: cell-based; settings: for EC50: holoreceptor transactivation, RXRα, read-out: RXR Trans. EC50 α; for Emax: relative to 10^-6 M cyclopropyl penta-2,4-dienoic acid reference (RXRs), read-out: % efficacy (RXRα transactivation)
T2 construct: expressed in transfected cells
T2 sequence (P19793 1-462): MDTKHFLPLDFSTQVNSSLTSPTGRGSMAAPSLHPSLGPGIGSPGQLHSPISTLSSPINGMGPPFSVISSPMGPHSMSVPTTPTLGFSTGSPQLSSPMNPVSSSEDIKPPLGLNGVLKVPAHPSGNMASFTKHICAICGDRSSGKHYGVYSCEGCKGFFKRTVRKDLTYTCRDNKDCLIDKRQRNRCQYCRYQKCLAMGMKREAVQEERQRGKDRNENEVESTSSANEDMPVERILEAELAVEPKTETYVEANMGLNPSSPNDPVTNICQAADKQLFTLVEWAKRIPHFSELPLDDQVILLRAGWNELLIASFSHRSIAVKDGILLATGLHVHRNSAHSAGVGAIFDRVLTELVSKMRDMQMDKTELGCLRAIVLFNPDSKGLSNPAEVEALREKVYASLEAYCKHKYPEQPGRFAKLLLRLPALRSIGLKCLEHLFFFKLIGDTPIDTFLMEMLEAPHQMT
Text: as §1, §2, §3

RARγ = target: T3, RARγ (Homo sapiens, UniProt P13631); assay: ligand binding assay, RARγ; settings: read-out: RAR Bind. Ki γ
T3 sequence (P13631 1-454): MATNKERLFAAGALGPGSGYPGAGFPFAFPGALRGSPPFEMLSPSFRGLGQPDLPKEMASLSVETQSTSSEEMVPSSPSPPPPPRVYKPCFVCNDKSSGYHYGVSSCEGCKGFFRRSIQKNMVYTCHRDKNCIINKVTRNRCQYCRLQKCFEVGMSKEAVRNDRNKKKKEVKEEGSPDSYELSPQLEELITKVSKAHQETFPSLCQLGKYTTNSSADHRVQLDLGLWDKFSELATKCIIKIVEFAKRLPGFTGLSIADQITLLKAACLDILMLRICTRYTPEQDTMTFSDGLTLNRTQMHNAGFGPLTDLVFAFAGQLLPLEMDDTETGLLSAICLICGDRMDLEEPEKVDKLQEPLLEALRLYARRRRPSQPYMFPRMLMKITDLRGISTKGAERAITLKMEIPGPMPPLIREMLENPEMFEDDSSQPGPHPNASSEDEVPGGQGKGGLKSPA
Text: as §1, §2, §3

RXRα [2] = target: T2, RXRα; assay: ligand binding assay, RXRα; settings: read-out: RXR Bind Ki α
Text: as §1, §2, §3

SMILES	Ki (RXRγ) [nM]	Ki (RARα; read-out: RAR Bind. Ki α) [nM]	EC50 (RXRα [1]) [nM]	Emax (RXRα [1]) [%]	Ki (RARγ) [nM]	Ki (RXRα [2]) [nM]	Ki (RARα; heading: RAR Bind. Ki α) [nM]
CC(C)c1cc(N(C)c2ccc(C(=O)O)cc2)cc2c1OCC2(C)C [Compound 30, 4-[Methyl-(3,3-dimethyl-7-isopropyl-2,3-dihydro-benzofuran-5-yl)-amino]-benzoic acid]	> 10000	16000	1000	75	3300	11000	
CCc1cc(N(c2ccc(C(=O)O)cc2)C(C)C)cc2c1OCC2(C)C [Compound 42, 4-[Isopropyl-(3,3-dimethyl-7-ethyl-2,3-dihydro-benzofuran-5-yl)-amino]-benzoic acid]	> 1000	> 10000	203	100	4900	> 1000	
CCN(c1ccc(C(=O)O)cc1)c1cc(C(C)(C)C)c2c(c1)C(C)(C)CO2 [Compound 32, 4-[Ethyl-(7-t-butyl-3,3-dimethyl-2,3-dihydro-benzofuran-5-yl)-amino]-benzoic acid]	672	> 1000	98	103	2000	222	
CCN(c1ccc(C(=O)O)cc1)c1cc(C(C)C)c2c(c1)C(C)(C)CO2 [Compound 31, 4-[Ethyl-(3,3-dimethyl-7-isopropyl-2,3-dihydro-benzofuran-5-yl)-amino]-benzoic acid]	4100	25000	74	116	4000	1.8	
CCc1cc(N(CC)c2ccc(C(=O)O)cc2)cc2c1OCC2(C)C [Compound 29, 4-[Ethyl-(3,3-dimethyl-7-ethyl-2,3-dihydro-benzofuran-5-yl)-amino]-benzoic acid]	> 1000	> 10000	139	117	8400	> 1000	
CCCN(c1ccc(C(=O)O)cc1)c1ccc2c(c1)C(C)(C)OC2(C)C [Compound 84, 4-[n-Propyl-(1,1,3,3-tetramethyl-1,3-dihydro-isobenzofuran-5-yl)-amino]-benzoic acid]	> 1000		40	121	> 10000	1500	> 10000
CCN(c1ccc(C(=O)O)cc1)c1cc(C)c2c(c1)C(C)(C)CO2 [Compound 27, 4-[Ethyl-(3,3,7-trimethyl-2,3-dihydro-benzofuran-5-yl)-amino]-benzoic acid]	> 100000	30000	1000	80	> 30000	15000	
CCCCN(c1ccc(C(=O)O)cc1)c1ccc2c(c1)C(C)(C)OC2(C)C [Compound 85, 4-[n-Butyl-(1,1,3,3-tetramethyl-1,3-dihydro-isobenzofuran-5-yl)-amino]-benzoic acid]	> 1000	> 10000	161	122	> 10000	> 1000	
CC(C)N(c1ccc(C(=O)O)cc1)c1ccc2c(c1)C(C)(C)OC2(C)C [Compound 87, 4-[i-Propyl-(1,1,3,3-tetramethyl-1,3-dihydro-isobenzofuran-5-yl)-amino]-benzoic acid]	2100	> 10000	57	115	> 10000	650	

Further lines, results first:

Ki (RXRγ) [nM]	Ki (RARα; read-out: RAR Bind. Ki α) [nM]	EC50 (RXRα [1]) [nM]	Emax (RXRα [1]) [%]	Ki (RARγ) [nM]	Ki (RXRα [2]) [nM]	Ki (RARα; heading: RAR Bind. Ki α) [nM]	SMILES
236	12000	10	92	2700	71		Cc1c(N(c2ccc(C(=O)O)cc2)C(C)C)cc2c(c1C(C)(C)C)OCC2(C)C [Compound 73, 4-[Isopropyl-(7-t-butyl-3,3,6-trimethyl-2,3-dihydro-benzofuran-5-yl)-amino]-benzoic acid]
	> 10000	16	66	2600	> 1000		CC(C)c1cc(N(c2ccc(C(=O)O)cc2)C(C)C)cc2c1OCC2(C)C [Compound 43]
344	> 1000	22	73	1600	11		CC(C)N(c1ccc(C(=O)O)cc1)c1cc(C(C)(C)C)c2c(c1)C(C)(C)CO2 [Compound 44, 4-[Isopropyl-(7-t-butyl-3,3-dimethyl-2,3-dihydro-benzofuran-5-yl)-amino]-benzoic acid]
> 1000	> 10000	39	107	> 10000	1000		CCN(c1ccc(C(=O)O)cc1)c1ccc2c(c1)C(C)(C)OC2(C)C [Compound 83, 4-[Ethyl-(1,1,3,3-tetramethyl-1,3-dihydro-isobenzofuran-5-yl)-amino]-benzoic acid]
